Reference: publication PMC7909954 (eLife, 2021)
Read-outs that look alike come from different tables or passages of the source.

What was measured:
KOR [1] = target: T1, KOR (Homo sapiens, UniProt P41145); assay: cell-based; settings: for EC50: EC50 cAMP inhibition hKOR; for Emax: HEK-293T, read-out: Emax% cAMP inhibition hKOR
MOR [2] = target: T2, MOR (Homo sapiens, UniProt P35372)
KOR [3] = target: T1, KOR; settings: for Log RA cAMP hKOR / LogRA Tango hKOR: transduction coefficient log(T/KA); for ΔlogRA Tango hKOR / ΔlogRA cAMP hKOR: vs U50,488h
KOR [4] = target: T1, KOR; assay: cell-based; settings: for Emax: HTLA, read-out: Emax% arrestin recruitment (Tango) hKOR
MOR [5] = target: T2, MOR; assay: cell-based; settings: for Emax: HEK-293T, read-out: Emax% cAMP inhibition hMOR; for EC50: pEC50 cAMP inhibition hMOR

T1 sequence (P41145 whole entry): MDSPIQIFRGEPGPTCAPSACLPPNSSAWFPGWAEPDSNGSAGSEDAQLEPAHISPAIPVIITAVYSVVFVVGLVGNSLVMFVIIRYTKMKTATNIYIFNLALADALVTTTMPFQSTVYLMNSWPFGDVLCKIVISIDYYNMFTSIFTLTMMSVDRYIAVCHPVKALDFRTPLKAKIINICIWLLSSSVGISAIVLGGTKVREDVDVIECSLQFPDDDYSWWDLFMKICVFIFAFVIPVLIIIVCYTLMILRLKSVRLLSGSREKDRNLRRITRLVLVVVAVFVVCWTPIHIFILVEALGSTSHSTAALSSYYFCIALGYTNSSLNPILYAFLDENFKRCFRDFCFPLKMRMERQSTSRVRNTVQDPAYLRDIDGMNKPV
T2 sequence (P35372 whole entry): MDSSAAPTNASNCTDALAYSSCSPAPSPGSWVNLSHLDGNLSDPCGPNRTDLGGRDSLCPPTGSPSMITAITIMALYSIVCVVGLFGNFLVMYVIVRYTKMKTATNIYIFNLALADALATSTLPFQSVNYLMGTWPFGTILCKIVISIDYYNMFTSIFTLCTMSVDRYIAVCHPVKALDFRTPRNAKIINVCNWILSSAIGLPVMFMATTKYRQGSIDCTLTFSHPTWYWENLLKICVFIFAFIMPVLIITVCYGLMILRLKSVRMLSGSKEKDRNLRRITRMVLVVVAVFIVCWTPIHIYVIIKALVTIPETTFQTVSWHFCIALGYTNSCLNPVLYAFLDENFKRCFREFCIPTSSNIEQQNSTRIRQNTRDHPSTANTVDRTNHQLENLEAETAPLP

Structure (SMILES)	EC50 (KOR [1]) [nM]	Emax (KOR [1]) [%]	arrestin recruitment at hMOR (in words) (MOR [2])	ΔΔlog RA (cAMP-Tango) hKOR (KOR [3])	Log RA cAMP hKOR (KOR [3])	LogRA Tango hKOR (KOR [3])	ΔlogRA Tango hKOR (KOR [3])	ΔlogRA cAMP hKOR (KOR [3])	Emax (KOR [4]) [%]	EC50 (KOR [4]; pEC50 arrestin recruitment (Tango) hKOR, ± SEM) [nM]	Emax (MOR [5]) [%]	EC50 (MOR [5]) [nM]	EC50 (KOR [4]; EC50 arrestin recruitment (Tango) hKOR) [nM]
NCc1ccc(C(=O)N[C@@H]2CC[C@H]3[C@H]4Cc5ccc(O)c6c5[C@@]3(CCN4CC3CC3)[C@H]2O6)cc1 [MP1209, 4-(Aminomethyl)-N-((4R,4aR,7R,7aR,12bS)−3-(cyclopropylmethyl)−9-hydroxy-2,3,4,4a,5,6,7,7a-octahydro-1H-4,12-methano[1]benzofuro[3,2-e]isoquinolin-7-yl)benzamide]	0.024	100 ± 1.23	null arrestin recruitment	-0.238±0.32	10.55±0.06	8.735±0.220	0.368±0.31	0.13±0.084	67 ± 3	0.372	98.5 ± 0.96	0.245	–
O=C(N[C@@H]1CC[C@H]2[C@H]3Cc4ccc(O)c5c4[C@@]2(CCN3CC2CC2)[C@H]1O5)c1cccc(CO)c1 [MP1210, N-((4R,4aR,7R,7aR,12bS)−3-(cyclopropylmethyl)−9-hydroxy-2,3,4,4a,5,6,7,7a-octahydro-1H-4,12-methano[1]benzofuro[3,2-e]isoquinolin-7-yl)−3-(hydroxymethyl)benzamide]	0.025	101 ± 1.1	null arrestin recruitment	-0.28±0.19	10.59±0.06	8.576±0.156	0.48±0.18	0.2±0.081	63 ± 3.3	–	94.6 ± 0.98	0.155	1.16
